pKa data for 42 compounds are collected here from ChEMBL document CHEMBL1145218, “QSAR study on pK(a) vis-à-vis physiological activity of sulfonamides: a dominating role of surface tension (inverse steric parameter)” (Bioorg Med Chem Lett, 2005).

The data set is described as follows: pKa value. The format is physicochemical.
On to `O=S(=O)(Nc1ccccc1)c1ccc(Br)cc1`, for which the pKa turned out to be 8.5. Under `O=S(=O)(Nc1ccccc1)c1cccc(Br)c1` stands 8.25; under `O=S(=O)(Nc1ccc(F)cc1)c1ccc(Br)cc1`, 8.38. `O=S(=O)(Nc1ccccc1)c1ccc(Cl)cc1` displayed a pKa of 8.47. With `Cc1ccc(NS(=O)(=O)c2ccc(Cl)cc2)cc1`, the pKa turned out to be 8.78. The compound `Cc1ccc(NS(=O)(=O)c2cccc([N+](=O)[O-])c2)cc1` yielded a pKa of 7.8. Under `O=S(=O)(Nc1ccccc1)c1ccc(F)cc1` stands 8.9; under `COc1ccc(S(=O)(=O)Nc2cccc([N+](=O)[O-])c2)cc1`, 8.44; under `Cc1ccc(S(=O)(=O)Nc2cccc([N+](=O)[O-])c2)cc1`, 8.27. Next, `O=S(=O)(Nc1ccc(Cl)cc1)c1ccccc1`: 8.75; `Nc1ccc(NS(=O)(=O)c2ccccc2)cc1`: 10.3; `Cc1ccc(S(=O)(=O)Nc2ccc(Cl)cc2)cc1`: 9.02. Under `Cc1ccc(NS(=O)(=O)c2ccc(C)cc2)cc1` stands 9.65; under `COc1ccc(S(=O)(=O)Nc2ccccc2)cc1`, 9.42; under `Cc1ccc(NS(=O)(=O)c2ccc(F)cc2)cc1`, 9.23. On to `Cc1ccc(S(=O)(=O)Nc2ccc(F)cc2)cc1`, for which the pKa was 9.2. `Cc1ccc(S(=O)(=O)Nc2ccccc2)cc1` came in with a pKa of 9.35.

Consider `O=[N+]([O-])c1cccc(NS(=O)(=O)c2ccc(Cl)cc2)c1`, for which the pKa was found to be 7.51. Take `COc1ccc(S(=O)(=O)Nc2ccc(Cl)cc2)cc1`: the pKa was determined as 9.19. The compound `O=[N+]([O-])c1cccc(NS(=O)(=O)c2ccc(F)cc2)c1` gave a pKa of 7.85.

In turn, `O=[N+]([O-])c1ccc(S(=O)(=O)Nc2ccc(Cl)cc2)cc1` registered a pKa of 6.24. Under `O=S(=O)(Nc1ccc(Cl)cc1)c1ccc(Cl)cc1` stands 8.3; under `O=S(=O)(Nc1ccc(F)cc1)c1ccc(F)cc1`, 8.73. Take `COc1ccc(S(=O)(=O)Nc2ccc(C)cc2)cc1`: the pKa came to 9.8. `O=S(=O)(Nc1ccc(Cl)cc1)c1ccc(F)cc1` displayed a pKa of 8.61. Under `Nc1ccc(NS(=O)(=O)c2ccc(Cl)cc2)cc1` stands 9.76; under `O=[N+]([O-])c1cccc(S(=O)(=O)Nc2ccc(F)cc2)c1`, 7.27; under `O=S(=O)(Nc1ccc(F)cc1)c1ccc(Cl)cc1`, 8.41.

`O=[N+]([O-])c1ccc(S(=O)(=O)Nc2ccc(F)cc2)cc1` gave a pKa of 6.45. As for `Cc1ccc(NS(=O)(=O)c2ccc([N+](=O)[O-])cc2)cc1`, the pKa is 6.78. Consider `O=[N+]([O-])c1cccc(S(=O)(=O)Nc2ccccc2)c1`, for which the pKa was found to be 7.5.

`O=S(=O)(Nc1ccc(Cl)cc1)c1ccc(Br)cc1` came in with a pKa of 8.24. Under `Cc1ccc(NS(=O)(=O)c2ccccc2)cc1` stands 9.34.

`O=[N+]([O-])c1ccc(S(=O)(=O)Nc2cccc([N+](=O)[O-])c2)cc1`: the pKa is 5.51. Under `Cc1cccc(S(=O)(=O)Nc2ccc(N)cc2)c1` stands 10.4; under `Cc1ccc(S(=O)(=O)Nc2ccc(N)cc2)cc1`, 10.5.

In the case of `COc1ccc(S(=O)(=O)Nc2ccc(F)cc2)cc1`, the pKa worked out at 9.32.

`O=[N+]([O-])c1cccc(NS(=O)(=O)c2ccc(Br)cc2)c1` gave a pKa of 7.42. Under `O=S(=O)(Nc1ccc(F)cc1)c1ccccc1` stands 8.85. In turn, `O=[N+]([O-])c1cccc(S(=O)(=O)Nc2ccc(Cl)cc2)c1` yielded a pKa of 7.19. Under `O=[N+]([O-])c1cccc(NS(=O)(=O)c2ccccc2)c1` stands 7.93. Next, `O=S(=O)(Nc1ccccc1)c1ccccc1` [PHENYL(PHENYLSULFONYL)AMINE]: 9.1.

For orientation: pKa means the pH at which an ionisable group is half protonated. The low end stands for a stronger acid or weaker base, the high end for a weaker acid or stronger base.
